Assay results reported in patent US10940329B2, “Phosphor-containing drug activator activatable by a Monte Carlo derived x-ray exposure, system containing the activator, and methods for use” (IMMUNOLIGHT, LLC, priority 2016, dated 2021).

Assays:
4T1-HER2 cells [1] = assay: Methylene blue staining for cell viability; type: cell-based, murine; details: FIGS. 13C, 13D; individual components; 1 Gy of 80 kVp x-rays; UVADEX 10 uM 8-MOP equivalent, phosphor 25, 50, 100 μg/mL
Text: Methylene blue staining of viable 4T1-HER2 cells confirms that the device works well according to the target parameters identified above. A plate having six (6) wells is subjected to treatment. […] One well (#1) is the control. One well (#2) has phosphor coated with EC and DLC (H100). One well (#3) has phosphor coated with EC (but no DLC). One well (#4) has drug UVADEX but no phosphors. One well (#5) has drug UVADEX and phosphors coated with EC and DLC. One well (#6) has drug UVADEX and phosphors coated with EC and no DLC.
All wells were exposed to the x-ray conditions noted above. […] One added benefit to a dual coating is redundancy in safety of the treatment.
(§1) Other assays were used to provide independent complimentary information on cell viability, e.g. Methylene blue staining and ATP-induced Luminescence imaging (Cell-Titer-Glo® Luminescence Cell Viability Assay). The luminescence imaging permitted investigation of the cytotoxicity of psoralen activated directly with a UV lamp, and in the absence of phosphors and x-ray radiation.
FIGS. 13A-13D illustrates the efficacy of treatment in-vitro in 4T1-HER2 cells, utilizing a regimen of 1/10-diluted UVADEX (with equivalent of 10 uM 8-MOP), 50 μg/mL phosphor 1 Gy of 80 kVp x-rays. FIG. 13A presents the cell viability data for three treatment conditions: UVADEX alone, phosphors alone, and the combination of UVADEX and phosphors. […]

4T1-HER2 cells [2] = assay: cell viability by Guava flow cytometry (forward scattering); type: cell-based, murine; details: FIG. 13A; UVADEX alone, 10 μM 8-MOP equivalent; 1 Gy of 80 kVp; p=0.97
Procedure: (§2) As part of the baseline study, in-vitro studies were conducted on plated cells following standard procedures. Cells were maintained in RPMI-1640 supplemented with 10% fetal bovine serum and L-glutamine from GIBCO (Grand Island, N.Y.) growing in a humidified atmosphere of 5% CO2. After incubation, cells were trypsinized and plated evenly onto twelve 12-well plates for 24 hours. About 20 minutes prior to irradiation, the 12 wells of each plate were exposed to the following combinations of additives: (1) control—cells only with no additives, (2) UVADEX only, (3) phosphors only, (4) UVADEX+ phosphors. Each plate had 12 wells with three wells for each of the four treatment arms. […]
(§3) Two primary flow cytometry analyses were used, both determined at 48 hours after treatment. […] The first analysis evaluated was metabolic cell viability (herein referred to as cell viability) calculated from the number of whole cells per well as determined using forward scattering (FSC). […]
(§4) FIGS. 13A-13D illustrates the efficacy of treatment in-vitro in 4T1-HER2 cells, utilizing a regimen of 1/10-diluted UVADEX (with equivalent of 10 uM 8-MOP), 50 μg/mL phosphor 1 Gy of 80 kVp x-rays. […] In FIG. 13A, cell viability after treatment (10 μM 8-MOP equivalent dilution of UVADEX, 50 μg/mL phosphor, 1 Gy of 80 kVp radiation) as determined by Guava flow cytome cytometry is depicted. […]

4T1-HER2 cells [3] = assay: Annexin V positivity by flow cytometry; type: cell-based, murine; details: FIG. 13B; either with or without x-ray (p values of 0.90 and 0.09)
Procedure: as §2, §3, §4

[4] = system: CT2A (murine malignant glioma); assay: Cell-Titer-Glo Luminescence Cell Viability Assay, UV activated psoralen; type: cell-based; details: FIG. 14A; psoralen 40 μM; UV light 0, 0.25, 0.5, 1.0 J/cm^2; N=4
Text: as §1
(§5) FIG. 14B presents data on CT2A malignant glioma cells, for a range of treatment parameters including variable x-ray dose (0, 0.67 and 1 Gy), phosphor concentration (50 or 100 μg) and psoralen concentration (8-MOP) at 10, 20 and 40 μM respectively. […] N=4 for each cell line at each UV light condition (0, 0.25, 0.5, 1.0 J/cm^2). The psoralen concentration was 40 μM. For FIG. 14B, in CT2A cells, the treatment cytotoxicity increases with X-ray dose (0, 0.67 and 1.00 Gy respectively), concentration of 8-MOP psoralen (10, 20 and 40 μM respectively), and phosphor (50 and 100 μg/ml) respectively (p values shown thereon).

[5] = system: KP-B (sarcoma) cell lines; assay: as above; type: cell-based, mice; details: FIG. 14A; psoralen 40 μM; UV light 0, 0.25, 0.5, 1.0 J/cm^2; N=4
Text: The mouse breast cancer cell line 4T1 was purchased from ATCC. 4T1-HER2 was provided by Dr. Michael Kershaw (Cancer Immunology Program, Peter MacCallum Cancer Centre, Victoria, Australia) and maintained in DMEM with penicillin/streptomycin and 10% FBS The Sarcoma KP-B cell lines were derived from primary tumors LSL-Kras; p53 Flox/Flox mice (45).
as §1, §5

4T1 = assay: as above; type: cell-based, murine; details: FIG. 14A; psoralen 40 μM; UV light 0, 0.25, 0.5, 1.0 J/cm^2; N=4
Text: as §1, §5

Compound | cell viability by methyl blue staining (4T1-HER2 cells [1]) | effect of addition of radiation on cell viability (4T1-HER2 cells [2]) | apoptotic activity (Annexin V) (4T1-HER2 cells [3]) | viable cells [4] | viable cells [5] | viable cells (4T1)
COc1c2occc2cc2ccc(=O)oc12 [UVADEX, 8-methoxypsoralen] | little effect | no significant effect on cell viability | negligible apoptotic activity |  |  | 
O=c1ccc2cc3ccoc3cc2o1 [psoralen] |  |  |  | reduce viable cells | reduce viable cells | reduce viable cells
